Measured values reported in paper PMC4774911, “Biochemical Screening of Five Protein Kinases from Plasmodium falciparum against 14,000 Cell-Active Compounds” (PLoS ONE, 2016).
pKd: −log10 of the molar value. “And” between values parts separate entries of the source, which are not always exact repeats. Identical values can stand only once.

Legend:
Experiment in all cases: biochemical
Design in all cases: endogenous in cells; host or cells: K562 cell extract; species or system K562 (extract); replicate k of n = 2 (each experiment ID is one independent experiment; two experiment IDs per compound)
Details in all cases: read-out: KDapp
[1] = target: KIT (Homo sapiens, UniProt P10721)
[2] = target: JAK2 (Homo sapiens, UniProt O60674)
Sequence of JAK2 (O60674 whole entry): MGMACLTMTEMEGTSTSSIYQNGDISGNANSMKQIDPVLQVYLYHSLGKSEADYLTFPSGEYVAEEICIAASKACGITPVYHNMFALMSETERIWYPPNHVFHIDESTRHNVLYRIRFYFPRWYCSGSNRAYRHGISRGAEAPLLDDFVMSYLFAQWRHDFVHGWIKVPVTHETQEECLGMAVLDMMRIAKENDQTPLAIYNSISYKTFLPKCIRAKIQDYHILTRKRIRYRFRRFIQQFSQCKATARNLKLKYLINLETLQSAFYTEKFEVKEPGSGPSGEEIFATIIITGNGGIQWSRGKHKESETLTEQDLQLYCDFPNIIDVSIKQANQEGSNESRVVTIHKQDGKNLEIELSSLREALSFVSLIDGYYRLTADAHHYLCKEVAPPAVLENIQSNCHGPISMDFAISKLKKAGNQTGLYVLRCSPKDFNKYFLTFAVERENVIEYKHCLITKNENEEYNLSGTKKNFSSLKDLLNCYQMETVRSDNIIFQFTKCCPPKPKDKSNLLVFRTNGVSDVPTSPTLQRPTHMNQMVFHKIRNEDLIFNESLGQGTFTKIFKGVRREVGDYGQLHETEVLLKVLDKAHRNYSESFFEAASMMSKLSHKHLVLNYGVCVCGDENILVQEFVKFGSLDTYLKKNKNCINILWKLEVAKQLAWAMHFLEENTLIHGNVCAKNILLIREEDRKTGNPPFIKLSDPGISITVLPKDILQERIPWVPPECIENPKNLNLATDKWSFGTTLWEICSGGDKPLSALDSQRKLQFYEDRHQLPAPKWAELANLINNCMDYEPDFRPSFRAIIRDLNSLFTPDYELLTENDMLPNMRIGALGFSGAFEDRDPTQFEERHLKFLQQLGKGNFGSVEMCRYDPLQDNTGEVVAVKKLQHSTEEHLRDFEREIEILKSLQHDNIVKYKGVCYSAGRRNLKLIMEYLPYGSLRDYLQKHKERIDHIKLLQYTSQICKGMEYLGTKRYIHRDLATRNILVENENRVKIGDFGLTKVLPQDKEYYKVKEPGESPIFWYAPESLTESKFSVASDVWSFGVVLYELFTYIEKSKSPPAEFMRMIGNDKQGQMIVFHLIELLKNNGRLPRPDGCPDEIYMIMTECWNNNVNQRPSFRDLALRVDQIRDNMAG

[3] = target: NEK6 (Homo sapiens, UniProt Q9HC98)
Sequence of NEK6 (Q9HC98 whole entry): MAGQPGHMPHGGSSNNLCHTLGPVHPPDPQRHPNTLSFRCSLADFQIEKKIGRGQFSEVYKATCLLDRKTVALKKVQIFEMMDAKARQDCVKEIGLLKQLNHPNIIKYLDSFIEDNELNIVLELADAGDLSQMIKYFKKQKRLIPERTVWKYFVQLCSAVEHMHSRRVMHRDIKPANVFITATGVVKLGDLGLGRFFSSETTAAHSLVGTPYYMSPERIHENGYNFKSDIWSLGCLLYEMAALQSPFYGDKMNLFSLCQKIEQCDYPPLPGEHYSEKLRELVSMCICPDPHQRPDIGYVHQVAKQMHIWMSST

[4] = target: PIK3C3 (Homo sapiens, UniProt Q8NEB9)
Sequence of PIK3C3 (Q8NEB9 whole entry): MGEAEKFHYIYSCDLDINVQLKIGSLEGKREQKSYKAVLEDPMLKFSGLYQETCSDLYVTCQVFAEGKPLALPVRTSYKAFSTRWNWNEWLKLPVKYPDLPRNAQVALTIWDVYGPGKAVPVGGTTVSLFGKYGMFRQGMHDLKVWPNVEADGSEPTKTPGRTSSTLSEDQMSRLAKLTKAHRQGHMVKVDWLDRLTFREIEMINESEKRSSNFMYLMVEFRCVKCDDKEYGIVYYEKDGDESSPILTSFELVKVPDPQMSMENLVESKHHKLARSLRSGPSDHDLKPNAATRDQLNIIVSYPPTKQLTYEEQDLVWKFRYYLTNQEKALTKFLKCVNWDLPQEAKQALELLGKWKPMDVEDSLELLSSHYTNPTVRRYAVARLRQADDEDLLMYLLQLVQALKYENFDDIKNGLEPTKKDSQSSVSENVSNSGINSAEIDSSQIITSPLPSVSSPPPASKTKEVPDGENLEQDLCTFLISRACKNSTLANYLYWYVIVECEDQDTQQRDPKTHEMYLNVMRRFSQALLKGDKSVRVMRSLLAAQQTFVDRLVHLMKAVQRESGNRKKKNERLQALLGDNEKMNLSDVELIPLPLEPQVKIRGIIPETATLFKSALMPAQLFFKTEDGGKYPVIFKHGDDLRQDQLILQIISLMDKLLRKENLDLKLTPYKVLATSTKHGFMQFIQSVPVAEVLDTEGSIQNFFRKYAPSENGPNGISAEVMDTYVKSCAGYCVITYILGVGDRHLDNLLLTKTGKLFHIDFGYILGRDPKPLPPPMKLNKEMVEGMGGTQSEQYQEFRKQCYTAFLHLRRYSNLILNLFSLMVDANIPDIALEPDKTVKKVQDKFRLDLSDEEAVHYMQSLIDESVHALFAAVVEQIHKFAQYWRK

[5] = target: T1, IKBKE (Homo sapiens, UniProt Q14164)
T1 sequence (Q14164 1-716): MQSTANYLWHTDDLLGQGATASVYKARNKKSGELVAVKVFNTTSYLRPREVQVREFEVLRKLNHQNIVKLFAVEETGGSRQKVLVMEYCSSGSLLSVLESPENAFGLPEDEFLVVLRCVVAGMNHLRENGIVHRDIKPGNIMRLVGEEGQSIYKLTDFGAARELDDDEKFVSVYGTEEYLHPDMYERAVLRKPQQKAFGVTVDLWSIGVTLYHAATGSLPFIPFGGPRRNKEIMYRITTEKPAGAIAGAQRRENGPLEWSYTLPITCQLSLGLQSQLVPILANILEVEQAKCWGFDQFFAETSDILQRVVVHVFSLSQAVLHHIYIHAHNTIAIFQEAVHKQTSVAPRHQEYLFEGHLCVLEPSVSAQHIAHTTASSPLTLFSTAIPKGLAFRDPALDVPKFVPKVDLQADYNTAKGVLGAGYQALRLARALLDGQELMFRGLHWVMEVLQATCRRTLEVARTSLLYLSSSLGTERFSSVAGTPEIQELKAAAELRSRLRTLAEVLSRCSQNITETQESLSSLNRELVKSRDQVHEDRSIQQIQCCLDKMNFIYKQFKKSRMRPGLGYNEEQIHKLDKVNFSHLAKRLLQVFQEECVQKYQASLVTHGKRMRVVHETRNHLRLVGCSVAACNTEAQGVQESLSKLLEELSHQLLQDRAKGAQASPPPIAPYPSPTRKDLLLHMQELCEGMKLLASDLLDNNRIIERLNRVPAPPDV

[6] = target: RPS6KA3 (Homo sapiens, UniProt P51812)
Sequence of RPS6KA3 (P51812 whole entry): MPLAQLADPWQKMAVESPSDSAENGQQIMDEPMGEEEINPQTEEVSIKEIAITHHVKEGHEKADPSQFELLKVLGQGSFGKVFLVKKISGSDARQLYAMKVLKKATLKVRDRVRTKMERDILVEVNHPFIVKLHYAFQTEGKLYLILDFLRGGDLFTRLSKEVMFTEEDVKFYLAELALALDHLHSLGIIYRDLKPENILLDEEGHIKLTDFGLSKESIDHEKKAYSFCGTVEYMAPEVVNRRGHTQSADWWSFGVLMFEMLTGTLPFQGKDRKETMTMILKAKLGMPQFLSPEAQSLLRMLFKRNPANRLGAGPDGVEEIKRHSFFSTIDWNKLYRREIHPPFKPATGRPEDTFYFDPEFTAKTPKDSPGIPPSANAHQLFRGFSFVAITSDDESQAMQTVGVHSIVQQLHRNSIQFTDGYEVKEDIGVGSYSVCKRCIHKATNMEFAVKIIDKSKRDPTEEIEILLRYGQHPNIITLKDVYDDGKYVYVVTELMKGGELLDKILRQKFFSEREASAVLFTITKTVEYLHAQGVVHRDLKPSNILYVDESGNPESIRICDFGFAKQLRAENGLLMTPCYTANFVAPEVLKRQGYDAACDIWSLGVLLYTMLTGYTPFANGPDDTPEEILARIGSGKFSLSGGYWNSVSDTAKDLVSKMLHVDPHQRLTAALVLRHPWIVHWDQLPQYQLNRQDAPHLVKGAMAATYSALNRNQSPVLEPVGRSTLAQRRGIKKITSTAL

[7] = target: MAPK8 (Homo sapiens, UniProt P45983)
Sequence of MAPK8 (P45983 whole entry): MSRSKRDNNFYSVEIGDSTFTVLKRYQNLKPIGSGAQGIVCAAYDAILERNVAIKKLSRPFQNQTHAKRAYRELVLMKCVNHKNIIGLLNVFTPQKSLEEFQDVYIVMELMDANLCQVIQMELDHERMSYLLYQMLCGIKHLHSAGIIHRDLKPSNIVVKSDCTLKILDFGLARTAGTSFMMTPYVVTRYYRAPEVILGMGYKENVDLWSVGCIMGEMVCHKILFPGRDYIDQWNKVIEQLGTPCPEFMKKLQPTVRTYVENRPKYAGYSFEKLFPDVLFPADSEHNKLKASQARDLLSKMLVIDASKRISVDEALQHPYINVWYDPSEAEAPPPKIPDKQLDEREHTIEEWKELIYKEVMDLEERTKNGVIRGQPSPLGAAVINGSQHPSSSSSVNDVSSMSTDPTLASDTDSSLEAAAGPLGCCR

[8] = target: PRKCA (Homo sapiens, UniProt P17252)
[9] = target: PIM1 (Homo sapiens, UniProt P11309)
Sequence of PIM1 (P11309 whole entry): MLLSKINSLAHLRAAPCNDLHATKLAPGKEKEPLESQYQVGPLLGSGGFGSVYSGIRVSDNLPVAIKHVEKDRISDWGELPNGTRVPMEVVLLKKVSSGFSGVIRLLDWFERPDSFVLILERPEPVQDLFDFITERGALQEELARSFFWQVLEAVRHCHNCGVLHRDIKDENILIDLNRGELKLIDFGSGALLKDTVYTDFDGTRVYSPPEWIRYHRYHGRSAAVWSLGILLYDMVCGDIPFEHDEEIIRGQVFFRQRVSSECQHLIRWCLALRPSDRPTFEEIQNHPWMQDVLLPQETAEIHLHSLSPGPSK

[10] = target: T2, TP53RK (Homo sapiens, UniProt Q96S44)
T2 sequence (Q96S44 1-253): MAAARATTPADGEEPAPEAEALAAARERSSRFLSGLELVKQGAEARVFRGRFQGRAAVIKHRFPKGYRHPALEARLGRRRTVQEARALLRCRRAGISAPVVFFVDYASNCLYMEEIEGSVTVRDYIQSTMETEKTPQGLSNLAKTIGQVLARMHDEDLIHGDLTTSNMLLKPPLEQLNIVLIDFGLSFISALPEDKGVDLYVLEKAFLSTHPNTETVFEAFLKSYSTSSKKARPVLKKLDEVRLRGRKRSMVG

For CN1CCN(c2ccc(Nc3ncc(C#N)c(Nc4ccccc4C(N)=O)n3)cc2)CC1.Cl [TCMDC-134116], the pKd [1] was 5.96, the pKd [2] was 6.54 and 6.73 and the pKd [3] was 6.79. The pKd [4] was 6.02, the pKd [5] was 6.02 and the pKd [6] was 7.22 and 7.09. For the same compound, the pKd [7] was 6.44 and 5.91, the pKd [8] was 6.41 and the pKd [9] was 5.45 and 5.53. For the same compound, the pKd [10] was 5.42.
